Among the data in patent US8178523B2, “Compounds for the treatment of hepatitis C” (Bristol-Myers Squibb Company, priority 2008, dated 2012) are IC50 and EC50 values, retold here.

For orientation: IC50 means the concentration needed to halve the response being measured. Higher therefore signals weaker potency in that assay. The term EC50 denotes the concentration giving half of the maximal effect.

In one experiment the target is T1, HCV NS5B RdRp (Hepatitis C virus genotype 1b, UniProt Q9WMX2).
T1 construct: The protein was expressed with an 18 amino acid C-terminal truncation to enhance the solubility; made in house; host or cells: E. coli BL21(DE3)
T1 sequence (Q9WMX2 2420-2992): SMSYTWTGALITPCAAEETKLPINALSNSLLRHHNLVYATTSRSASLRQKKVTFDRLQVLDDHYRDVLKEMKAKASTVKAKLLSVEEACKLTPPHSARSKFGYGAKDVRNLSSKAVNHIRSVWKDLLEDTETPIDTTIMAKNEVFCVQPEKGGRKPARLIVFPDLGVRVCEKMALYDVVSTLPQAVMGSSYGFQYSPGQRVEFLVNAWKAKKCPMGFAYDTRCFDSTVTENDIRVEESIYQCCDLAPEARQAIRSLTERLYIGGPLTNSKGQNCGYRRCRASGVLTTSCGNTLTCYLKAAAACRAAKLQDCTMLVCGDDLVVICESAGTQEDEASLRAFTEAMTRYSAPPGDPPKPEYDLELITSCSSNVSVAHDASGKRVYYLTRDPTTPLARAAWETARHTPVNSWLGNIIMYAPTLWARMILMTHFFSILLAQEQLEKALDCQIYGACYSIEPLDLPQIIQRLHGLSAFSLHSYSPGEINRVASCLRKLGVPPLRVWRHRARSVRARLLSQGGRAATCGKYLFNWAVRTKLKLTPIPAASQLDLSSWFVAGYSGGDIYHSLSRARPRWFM
Description: HCV NS5B RdRp enzyme assay. The format is biochemical. The conditions noted are these: HCV NS5B genotype 1b, standard or modified RdRp assay not given. As to the method:
HCV NS5B RdRp cloning, expression, and purification. The cDNA encoding the NS5B protein of HCV, genotype 1b, was cloned into the pET21a expression vector. The protein was expressed with an 18 amino acid C-terminal truncation to enhance the solubility. The E. coli competent cell line BL21(DE3) was used for expression of the protein. Cultures were grown at 37° C. for ˜4 hours until the cultures reached an optical density of 2.0 at 600 nm. The cultures were cooled to 20° C. and induced with 1 mM […]. Fresh ampicillin was added to a final concentration of 50 μg/ml and the cells were grown overnight at 20° C.
Cell pellets (3 L) were lysed for purification to yield 15-24 mgs of purified NS5B. The lysis buffer consisted of 20 mM Tris-HCl, pH 7.4, 500 mM NaCl, 0.5% triton X-100, 1 mM DTT, 1 mM EDTA, 20% glycerol, 0.5 mg/ml lysozyme, 10 mM MgCl2, 15 ug/ml deoxyribonuclease I, and Complete TM protease inhibitor tablets (Roche). After addition of the lysis buffer, frozen cell pellets were resuspended using a tissue homogenizer. To reduce the viscosity of the sample, aliquots of the lysate were sonicated on ice using a microtip attached to a Branson sonicator. The sonicated lysate was centrifuged at 100,000×g for 1 hr at 4° C. and filtered through a 0.2 μm filter unit (Corning).
The protein was purified using two sequential chromatography steps: Heparin sepharose CL-6B and polyU sepharose 4B (Pharmacia). The chromatography buffers were identical to the lysis buffer but contained no lysozyme, deoxyribonuclease I, MgCl2 or protease inhibitor and the NaCl concentration of the buffer was adjusted according to the requirements for charging the protein onto the column. Each column was eluted with a NaCl gradient which varied in length from 5-50 column volumes depending on the column type. After the final chromatography step, the resulting purity of the enzyme is >90% based on SDS-PAGE analysis. The enzyme was aliquoted and stored at −80° C.
Standard HCV NS5B RdRp enzyme assay. HCV RdRp genotype 1b assays were run in a final volume of 60 μl in 96 well plates (Corning 3600). The assay buffer is composed of 20 mM Hepes, pH 7.5, 2.5 mM KCl, 2.5 mM MgCl2, 1 mM DTT, 1.6 U RNAse inhibitor (Promega N2515), 0.01 mg/ml BSA (Sigma B6917), and 2% glycerol. All compounds were serially diluted (3-fold) in DMSO and diluted further in water such that the final concentration of DMSO in the assay was 2%. HCV RdRp genotype 1b enzyme was used at a final concentration of 28 nM. A polyA template was used at 6 nM, and a biotinylated oligo-dT12 primer was used at 180 nM final concentration. Template was obtained commercially (Amersham 27-4110). Biotinylated primer was prepared by Sigma Genosys. 3H-UTP was used at (0.29 μM total UTP). Reactions were initiated by the addition of enzyme, incubated at 30° C. for 60 min, and stopped by adding 25 μl of 50 mM EDTA containing SPA beads (4 μg/μl, Amersham RPNQ 0007). Plates were read on a Packard Top Count NXT after >1 hr incubation at room temperature.
Modified HCV NS5B RdRp enzyme assay. A modified enzyme assay was performed essentially as described for the standard enzyme assay except for the following: The biotinylated oligo dT12 primer was precaptured on streptavidin-coated SPA beads by mixing primer and beads in assay buffer and incubating at room temperature for one hour. Unbound primer was removed after centrifugation. The primer-bound beads were resuspended in 20 mM Hepes buffer, pH 7.5 and used in the assay at final concentrations of 20 nM primer and […] beads. Order of addition in the assay: enzyme (1.75 nM) was added to diluted compound followed by the addition of a mixture of template (0.36 nM), 3H-UTP (0.6 μCi, 0.29 μM), and primer-bound beads, to initiate the reaction; concentrations given are final. Reactions were allowed to proceed for 4 hours at 30° C.
IC50 values for compounds were determined using seven different [I]. […]

The test system of another experiment is HCV replicon cells. Description: HCV replicon FRET / luciferase assay. It is filed as cell-based. To be noted: Hepatitis C virus, 50% reduction in FRET or luciferase activity. As to the method: FRET Assay Preparation. The HCV FRET screening assay was performed in 96-well cell culture plates. The FRET peptide (Anaspec, Inc.) (Taliani et al., Anal. Biochem. 1996, 240, 60-67) contains a fluorescence donor, EDANS, near one end of the peptide and an acceptor, DABCYL, near the other end. The fluorescence of the peptide is quenched by […] resonance energy transfer (RET) between the donor and the acceptor, but as the NS3 protease cleaves the peptide the products are released from RET quenching and the fluorescence of the donor becomes apparent. The assay reagent was made as follows: 5× cell Luciferase cell culture lysis reagent from Promega (#E153A) diluted to 1× with dH2O, NaCl added to 150 mM final, the FRET peptide diluted to 20 μM final from a 2 mM stock.
To prepare plates, HCV replicon cells, with or without a Renilla luciferase reporter gene, were trypsinized and plated in a 96-well plate with titrated test compounds added in columns 3 through 12; columns 1 and 2 contained a control compound (HCV control inhibitor), and the bottom row contained cells with DMSO only. The plates were then placed in a CO2 incubator at 37° C.
Assays. Subsequent to addition of the test compounds described above (FRET Assay Preparation), at various times the plate was removed and Alamar blue solution (Trek Diagnostics, #00-100) was added to measure cellular toxicity. After reading in a Cytoflour 4000 instrument (PE Biosystems), plates were rinsed with PBS and then used for FRET assay by the addition of 30 ul of the FRET peptide assay reagent described above (FRET Assay Preparation) per well. The plate was then placed into the Cytoflour 4000 instrument which had been set to 340 excite/490 emission, automatic mode for up to 20 cycles and the plate read in a kinetic mode. Typically, the signal to noise using an endpoint analysis after the reads was at least three-fold. Alternatively, after Alamar blue reading, plates were rinsed with PBS, then used for luciferase assay using the Promega Dual-Glo Luciferase Assay System or the Promega EnduRen Live Cell Substrate assay.
Compound analysis was performed by quantification of the relative HCV replicon inhibition and the relative cytotoxicity values. To calculate cytoxicity values, the average Alamar Blue fluorescence signals from the control wells were set as 100% non-toxic. The individual signals in each of the compound test wells were then divided by the average control signal and multiplied by 100% to determine […]. To calculate the HCV replicon inhibition values, an average background value was obtained from the two wells containing the highest amount of HCV control inhibitor at the end of the assay period. These numbers were similar to those obtained from naïve Huh-7 cells. The background numbers were then subtracted from the average signal obtained from the control wells and this number was used as 100% activity. The individual signals in each of the compound test wells were then divided by the averaged control values after background subtraction and multiplied by 100% to determine percent activity. EC50 values were calculated as the concentration which caused a 50% reduction in FRET or luciferase activity. The two numbers generated for the compound plate, percent cytoxicity and percent activity, were used to determine compounds of interest for further analysis.
(In antiviral work, replicon cells carry a viral genome segment that copies itself.)

As for `COc1ccc2c(c1)C1CC1(C(=O)N1CCC(c3nnc(-c4ccccc4)o3)CC1)Cn1c-2c(C2CCCCC2)c2ccc(C(=O)NS(=O)(=O)N(C)C)cc21` (stereo not drawn), at HCV NS5B RdRp (class symbols), the IC50 was 2 to 500 nM. The compound also showed an EC50 with HCV replicon cells (class symbols) of 2 to 500 nM.

On HCV NS5B RdRp (class symbols), `CCc1nnc(C2CCN(C(=O)C34CC3c3cc(OC)ccc3-c3c(C5CCCCC5)c5ccc(C(=O)NS(=O)(=O)C(C)C)cc5n3C4)CC2)o1` (stereo not drawn) showed an IC50 of 2 to 500 nM. The same compound came in with an EC50 in the experiment on HCV replicon cells (class symbols) of 2 to 500 nM.

`COc1ccc2c(c1)C=C(C(=O)N1CCC(c3nc(C)no3)CC1)Cn1c-2c(C2CCCCC2)c2ccc(C(=O)NS(=O)(=O)N(C)C)cc21` yielded an IC50 on HCV NS5B RdRp (numeric values) of 90 nM. In the experiment with HCV replicon cells (numeric values), this compound displayed an EC50 of 230 nM.

`COc1ccc2c(c1)C=C(C(=O)N1CCCCC1c1nc(C(C)C)no1)Cn1c-2c(C2CCCCC2)c2ccc(C(=O)NS(=O)(=O)N(C)C)cc21` (stereo not drawn) yielded an IC50 at HCV NS5B RdRp (numeric values) of 150 nM. The same compound gave an EC50 with HCV replicon cells (numeric values) of 1000 nM.

At HCV NS5B RdRp (class symbols), `COc1ccc2c(c1)C1CC1(C(=O)N1CCC(c3c[nH]c4ccccc34)CC1)Cn1c-2c(C2CCCCC2)c2ccc(C(=O)NS(=O)(=O)C(C)C)cc21` (stereo not drawn) gave an IC50 of 2 to 500 nM. In the experiment on HCV replicon cells (class symbols), this compound displayed an EC50 of 2 to 500 nM.

For the compound `COc1ccc2c(c1)C=C(C(=O)N1CCCCC1c1nccs1)Cn1c-2c(C2CCCCC2)c2ccc(C(=O)NS(=O)(=O)N(C)C)cc21` (stereo not drawn), the IC50 against HCV NS5B RdRp (numeric values) turned out to be 100 nM. In the experiment with HCV replicon cells (numeric values), this compound showed an EC50 of 460 nM.
